According to ChEMBL document CHEMBL1125751, “On the optimization of hydrophobic and hydrophilic substituent interactions of 2,4-diamino-5-(substituted-benzyl)pyrimidines with dihydrofolate reductase” (J Med Chem, 1991):

Columns and labels:
[1] = biological target: T1, Dihydrofolate reductase (Homo sapiens) (UniProt P00374); experiment: (§1) Selectivity index against Escherichia coli DHFR.; type: functional
T1 sequence (whole entry): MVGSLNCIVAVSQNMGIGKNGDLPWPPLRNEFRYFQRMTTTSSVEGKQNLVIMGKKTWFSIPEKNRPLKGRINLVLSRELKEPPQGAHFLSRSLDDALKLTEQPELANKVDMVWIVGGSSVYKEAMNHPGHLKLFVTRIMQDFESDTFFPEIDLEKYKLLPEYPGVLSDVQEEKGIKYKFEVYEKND

[2] = biological target: T1, Dihydrofolate reductase (Homo sapiens); experiment: (§2) Selectivity index against Lactobacillus casei DHFR.; type: functional
[3] = as §1; type: functional
Dihydrofolate reductase = biological target: T2, Dihydrofolate reductase (Gallus gallus, UniProt P00378); experiment: Compound was evaluated for inhibitory activity against chicken dihydrofolate reductase; details: read-out: Log 1/Ki (converted)
T2 sequence (P00378 whole entry): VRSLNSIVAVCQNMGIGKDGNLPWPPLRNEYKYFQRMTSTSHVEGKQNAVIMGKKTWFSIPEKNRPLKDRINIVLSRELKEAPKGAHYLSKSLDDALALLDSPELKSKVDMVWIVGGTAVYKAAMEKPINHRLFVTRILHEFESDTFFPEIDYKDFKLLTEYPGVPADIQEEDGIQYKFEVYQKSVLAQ

[4] = as §2; type: functional

SI [1] | SI [2] | Ki (Dihydrofolate reductase) [µM] | SMILES | SI [3] | SI [4]
4.28 | 3.13 | – | CCc1cc(Cc2cnc(N)nc2N)cc(CO)c1CO | – | –
– | – | 708 | CCc1cc(Cc2cnc(N)nc2N)cc(NC(C)=O)c1CO | 4.87 | 3.36
